± gives the expanded uncertainty stated by the source.
Test: xn = mol fraction of the nth substance listed
Conditions: 100 kPa, Liquid, Concentric cylinders viscometry

COC(=O)CCCCC(=O)OC [dimethyl 1,6-hexanedioate] + CCC(C)=O showed a viscosity (288.15 K, x1 = 0.1002) of 0.5707 ± 0.0081 mPa·s, a viscosity (288.15 K, x1 = 0.2002) of 0.7368 ± 0.0085 mPa·s and a viscosity (288.15 K, x1 = 0.3002) of 0.9419 ± 0.0092 mPa·s. It also gave a viscosity (288.15 K, x1 = 0.4004) of 1.183 ± 0.01 mPa·s, a viscosity (288.15 K, x1 = 0.5001) of 1.467 ± 0.011 mPa·s and a viscosity (288.15 K, x1 = 0.5999) of 1.802 ± 0.013 mPa·s. For the same compound, the viscosity (288.15 K, x1 = 0.6998) was 2.191 ± 0.015 mPa·s, the viscosity (288.15 K, x1 = 0.7994) was 2.636 ± 0.017 mPa·s and the viscosity (288.15 K, x1 = 0.8997) was 3.16 ± 0.021 mPa·s. The viscosity (288.15 K, x1 = 1) was 3.751 ± 0.024 mPa·s, the viscosity (293.15 K, x1 = 0.1002) was 0.5434 ± 0.008 mPa·s and the viscosity (293.15 K, x1 = 0.2002) was 0.6952 ± 0.0084 mPa·s. It also gave a viscosity (293.15 K, x1 = 0.3002) of 0.8803 ± 0.009 mPa·s, a viscosity (293.15 K, x1 = 0.4004) of 1.096 ± 0.0097 mPa·s and a viscosity (293.15 K, x1 = 0.5001) of 1.347 ± 0.011 mPa·s. It also gave a viscosity (293.15 K, x1 = 0.5999) of 1.64 ± 0.012 mPa·s, a viscosity (293.15 K, x1 = 0.6998) of 1.974 ± 0.014 mPa·s and a viscosity (293.15 K, x1 = 0.7994) of 2.353 ± 0.016 mPa·s. The viscosity (293.15 K, x1 = 0.8997) was 2.794 ± 0.019 mPa·s, the viscosity (293.15 K, x1 = 1) was 3.289 ± 0.022 mPa·s and the viscosity (298.15 K, x1 = 0.1002) was 0.5166 ± 0.0079 mPa·s. It also gave a viscosity (298.15 K, x1 = 0.2002) of 0.6563 ± 0.0083 mPa·s, a viscosity (298.15 K, x1 = 0.3002) of 0.824 ± 0.0088 mPa·s and a viscosity (298.15 K, x1 = 0.4004) of 1.019 ± 0.0095 mPa·s. For the same compound, the viscosity (298.15 K, x1 = 0.5001) was 1.242 ± 0.01 mPa·s, the viscosity (298.15 K, x1 = 0.5999) was 1.498 ± 0.012 mPa·s and the viscosity (298.15 K, x1 = 0.6998) was 1.79 ± 0.013 mPa·s. It also gave a viscosity (298.15 K, x1 = 0.7994) of 2.12 ± 0.015 mPa·s, a viscosity (298.15 K, x1 = 0.8997) of 2.491 ± 0.017 mPa·s and a viscosity (298.15 K, x1 = 1) of 2.91 ± 0.02 mPa·s. The viscosity (303.15 K, x1 = 0.1002) was 0.4912 ± 0.0079 mPa·s, the viscosity (303.15 K, x1 = 0.2002) was 0.6199 ± 0.0082 mPa·s and the viscosity (303.15 K, x1 = 0.3002) was 0.7742 ± 0.0087 mPa·s. The viscosity (303.15 K, x1 = 0.4004) was 0.9509 ± 0.0093 mPa·s, the viscosity (303.15 K, x1 = 0.5001) was 1.15 ± 0.01 mPa·s and the viscosity (303.15 K, x1 = 0.5999) was 1.38 ± 0.011 mPa·s. It also gave a viscosity (303.15 K, x1 = 0.6998) of 1.635 ± 0.012 mPa·s, a viscosity (303.15 K, x1 = 0.7994) of 1.921 ± 0.014 mPa·s and a viscosity (303.15 K, x1 = 0.8997) of 2.241 ± 0.016 mPa·s. It also gave a viscosity (303.15 K, x1 = 1) of 2.604 ± 0.018 mPa·s, a viscosity (308.15 K, x1 = 0.1002) of 0.4667 ± 0.0078 mPa·s and a viscosity (308.15 K, x1 = 0.2002) of 0.5865 ± 0.0081 mPa·s. The viscosity (308.15 K, x1 = 0.3002) was 0.7277 ± 0.0085 mPa·s, the viscosity (308.15 K, x1 = 0.4004) was 0.8892 ± 0.0091 mPa·s and the viscosity (308.15 K, x1 = 0.5001) was 1.069 ± 0.0098 mPa·s. The viscosity (308.15 K, x1 = 0.5999) was 1.274 ± 0.011 mPa·s, the viscosity (308.15 K, x1 = 0.6998) was 1.5 ± 0.012 mPa·s and the viscosity (308.15 K, x1 = 0.7994) was 1.75 ± 0.013 mPa·s. The viscosity (308.15 K, x1 = 0.8997) was 2.033 ± 0.015 mPa·s, the viscosity (308.15 K, x1 = 1) was 2.342 ± 0.017 mPa·s and the viscosity (313.15 K, x1 = 0.1002) was 0.4425 ± 0.0078 mPa·s. It also gave a viscosity (313.15 K, x1 = 0.2002) of 0.555 ± 0.0081 mPa·s, a viscosity (313.15 K, x1 = 0.3002) of 0.6853 ± 0.0084 mPa·s and a viscosity (313.15 K, x1 = 0.4004) of 0.8331 ± 0.0089 mPa·s. It also gave a viscosity (313.15 K, x1 = 0.5001) of 0.9961 ± 0.0095 mPa·s, a viscosity (313.15 K, x1 = 0.5999) of 1.181 ± 0.01 mPa·s and a viscosity (313.15 K, x1 = 0.6998) of 1.382 ± 0.011 mPa·s. For the same compound, the viscosity (313.15 K, x1 = 0.7994) was 1.604 ± 0.012 mPa·s, the viscosity (313.15 K, x1 = 0.8997) was 1.851 ± 0.014 mPa·s and the viscosity (313.15 K, x1 = 1) was 2.121 ± 0.015 mPa·s. For the same compound, the viscosity (318.15 K, x1 = 0.1002) was 0.4199 ± 0.0077 mPa·s, the viscosity (318.15 K, x1 = 0.2002) was 0.525 ± 0.008 mPa·s and the viscosity (318.15 K, x1 = 0.3002) was 0.6465 ± 0.0083 mPa·s. It also gave a viscosity (318.15 K, x1 = 0.4004) of 0.7827 ± 0.0088 mPa·s, a viscosity (318.15 K, x1 = 0.5001) of 0.9324 ± 0.0093 mPa·s and a viscosity (318.15 K, x1 = 0.5999) of 1.098 ± 0.01 mPa·s. For the same compound, the viscosity (318.15 K, x1 = 0.6998) was 1.279 ± 0.011 mPa·s, the viscosity (318.15 K, x1 = 0.7994) was 1.476 ± 0.012 mPa·s and the viscosity (318.15 K, x1 = 0.8997) was 1.695 ± 0.013 mPa·s. For the same compound, the viscosity (318.15 K, x1 = 1) was 1.933 ± 0.015 mPa·s, the viscosity (323.15 K, x1 = 0.1002) was 0.4037 ± 0.0077 mPa·s and the viscosity (323.15 K, x1 = 0.2002) was 0.502 ± 0.0079 mPa·s. It also gave a viscosity (323.15 K, x1 = 0.3002) of 0.6165 ± 0.0082 mPa·s, a viscosity (323.15 K, x1 = 0.4004) of 0.7425 ± 0.0086 mPa·s and a viscosity (323.15 K, x1 = 0.5001) of 0.883 ± 0.0091 mPa·s. The viscosity (323.15 K, x1 = 0.5999) was 1.036 ± 0.0097 mPa·s, the viscosity (323.15 K, x1 = 0.6998) was 1.202 ± 0.011 mPa·s and the viscosity (323.15 K, x1 = 0.7994) was 1.381 ± 0.011 mPa·s. The viscosity (323.15 K, x1 = 0.8997) was 1.577 ± 0.013 mPa·s and the viscosity (323.15 K, x1 = 1) was 1.79 ± 0.014 mPa·s.

Reference: the NIST ThermoML archive (doi:10.1021/je5007696)
